# Experimental data: patent US20250082656A1, “DOSAGE REGIMENS FOR TREATMENT OF DENGUE INFECTION” (Atea Pharmaceuticals, Inc., priority 2022, published 2025)
# Experiments:
# [1] = Pharmacokinetic study in SAD cohorts; assay type: in vivo, human; conditions: for CL renal: plasma and urine; for AUC(0-inf) / half-life / Cmax / Tmax / AUCInf / T1/2: human plasma; for dose proportionality of plasma exposure: dose range 250 to 1500 mg; for Urine Elimination: following single oral administration of Compound 2 at 250 to 1500 mg
# Protocol: Pharmacokinetic measurements for FIGS. 11, 12, 13, 14, and 15 were analyzed using LC-MS/MS according to the protocol described herein. Plasma samples were prepared for MS analysis by adding internal standards and extracting with 20 volumes chilled ACN. After vortex (800 rpm for 10 min) and centrifugation (4,000 rpm, 15 min, 4° C.), the supernatants (25 μL) were diluted with an equal volume of H2O, mixed and spun again. After adding internal standards, the PBMC samples (10^6 cells) were lyzed with 300 μL MeOH/H2O (70:30, v/v) and 40 mM dibutylammonium acetate (DBAA), mixed by vortex and centrifuged (12,000 rpm, 15 min, 4° C.). Aliquots of the supernatants (35 μL) were dried under nitrogen and reconstituted in H2O, then mixed and spun again. […] A binary nonlinear gradient with mobile phases A (0.1% formic acid in water) and B (0.1% formic acid in ACN) were used to elute samples at 0.8 mL/min, with a run time of 5 min. […] A binary nonlinear gradient with mobile phases A (0.001% NHr H2O, 0.18 mM DBAA in H2O) and B (10 mM N,N-dimethyl-hexylamine, 3 mM NH4OAc in ACN/H2O (50.50, v/v)) were used to elute samples at 0.5 mL/min, with a run time of 3 min. Standards in 50% MeOH were used for calibration. […] Internal standards (ISS) as described previously (Good et al., Preclinical evaluation of AT-527, a novel guanosine nucleotide prodrug with potent, pan-genotypic activity against hepatitis C virus. PLos One 15:e02271045) were used to correct for variations in recovery.
# Data analysis of the pharmacokinetic data generated according to Example 21 and presented in FIGS. 11, 12, 13, 14, and 15 was analyzed according to the procedure described herein. Plasma concentrations of Compound 1 (AT-281), Compound 3 (AT-551) and Compound 6 (AT-273) were subjected to non-compartmental pharmacokinetic analysis using Phoenix WinNonlin software (version 6.3 or above, Pharsight, Mountain View, CA). The linear/log trapezoidal rule was applied in obtaining the PK parameters.
# Dengue serotype 4 = experiment: In vitro antiviral potency, summary over strains, Dengue serotype 4; assay type: cell-based; conditions: Dengue virus
# [2] = Plasma PK after single oral dose of AT-752, mice; conditions: Mouse, single oral AT-752 420 mg/kg
# Rhinovirus = experiment: Antiviral specificity panel, Rhinovirus; assay type: cell-based; conditions: Enterovirus; RNA virus, H1-HeLa
# DENV-1 = experiment: microbe, parasite or virus in culture; conditions: Dengue virus, DENV1, Huh-7
# West Nile (WNV) = experiment: microbe, parasite or virus in culture; assay type: cell-based; conditions: Kern 515, WNo2, Huh-7, VYR assay
# Chikungunya = experiment: Antiviral specificity panel, Chikungunya; assay type: cell-based; conditions: Chikungunya virus; RNA virus, Huh-7
# flaviviruses [3] = experiment: organism not typed; conditions: 144 h, read-out: concentration to achieve 50% inhibition (EC50) of the virus-induced cytopathic effect (CPE), range over 11 strains of 7 flaviviruses in 3 cell types, 3- to 6-day incubation
# flaviviruses [4] = system: flaviviruses
# DENV1 NS5 = DENV1 NS5 (Dengue virus type 1, UniProt P17763); experiment: Thermal shift assay, DENV1 NS5; conditions: read-out: ΔTM
# [5] = system: NS5 RNA dependent RNA polymerase (RdRp); experiment: Competitive nucleotide incorporation assays, all four DENV serotypes (summary); assay type: biochemical, Dengue virus; conditions: approximately
# Protocol: As described in Example 10 and shown in FIG. 1, the active metabolite of Compound 2 or Compound 1 (Compound 5) acts as a GTP analog and is incorporated into RNA by the NS5 RNA dependent RNA polymerase (RdRp), immediately terminating synthesis.
# The chain-terminating efficiency of Compound 5 was measured in competitive nucleotide incorporation assays using all four DENV serotypes. […] In comparison, sofosbuvir triphosphate is incorporated into the RNA less than 1 time for every 100 UTP (native uridine triphosphate) incorporations.
# [6] = molecular target: human cellular DNA-dependent DNA polymerase γ (Homo sapiens, UniProt P54098); conditions: previously shown (Good et al.); read-out: estimated IC50; cited from earlier work
# DENV2 NS5 = DENV2 NS5 (Dengue virus type 2, UniProt P14340); experiment: Thermal shift assay, DENV2 NS5; conditions: read-out: ΔTM
# [7] = both sexes, human, plasma, po, 250 mg, single oral Compound 2 250 mg, fasting
# [8] = both sexes, human, plasma, po, 500 mg, single oral Compound 2 500 mg, fasting
# [9] = both sexes, human, plasma, po, 500 mg, single oral Compound 2 500 mg, fed
# [10] = both sexes, human, plasma, po, 1000 mg, single oral Compound 2 1000 mg, South/Southeast/East Asian origin
# [11] = both sexes, human, plasma, po, 1000 mg, single oral Compound 2 1000 mg, fasting
# [12] = both sexes, human, plasma, po, 1500 mg, single oral Compound 2 1500 mg, fasting
# [13] = single oral Compound 2 250 mg, fasting
# [14] = single oral Compound 2 500 mg, fasting
# [15] = single oral Compound 2 500 mg, fed
# [16] = single oral Compound 2 1000 mg, South/Southeast/East Asian origin
# [17] = single oral Compound 2 1000 mg, fasting
# [18] = single oral Compound 2 1500 mg, fasting
# DENV1 NS5, sequence (P17763 2494-3392): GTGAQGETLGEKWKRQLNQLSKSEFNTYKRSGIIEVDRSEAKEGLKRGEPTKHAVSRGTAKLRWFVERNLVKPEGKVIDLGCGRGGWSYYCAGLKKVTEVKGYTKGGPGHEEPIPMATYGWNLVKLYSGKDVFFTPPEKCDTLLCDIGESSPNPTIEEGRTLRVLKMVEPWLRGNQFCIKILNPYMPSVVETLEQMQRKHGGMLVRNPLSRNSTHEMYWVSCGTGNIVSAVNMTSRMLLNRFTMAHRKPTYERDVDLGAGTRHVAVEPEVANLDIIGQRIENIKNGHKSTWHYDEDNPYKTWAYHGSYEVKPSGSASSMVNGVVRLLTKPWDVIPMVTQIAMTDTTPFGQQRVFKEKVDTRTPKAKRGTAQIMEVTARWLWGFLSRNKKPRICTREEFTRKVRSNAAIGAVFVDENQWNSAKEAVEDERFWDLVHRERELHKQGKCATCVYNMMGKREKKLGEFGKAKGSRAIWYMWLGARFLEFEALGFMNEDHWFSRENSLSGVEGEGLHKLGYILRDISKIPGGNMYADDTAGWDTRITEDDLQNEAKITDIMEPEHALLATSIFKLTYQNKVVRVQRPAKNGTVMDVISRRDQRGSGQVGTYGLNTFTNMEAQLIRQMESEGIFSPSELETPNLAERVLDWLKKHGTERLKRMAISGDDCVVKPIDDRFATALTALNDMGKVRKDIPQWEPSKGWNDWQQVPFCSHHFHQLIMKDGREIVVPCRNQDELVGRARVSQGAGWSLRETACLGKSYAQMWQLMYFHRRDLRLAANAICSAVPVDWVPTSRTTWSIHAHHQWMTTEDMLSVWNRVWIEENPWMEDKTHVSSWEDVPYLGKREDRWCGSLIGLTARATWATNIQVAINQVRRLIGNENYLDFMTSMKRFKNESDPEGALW
# human cellular DNA-dependent DNA polymerase γ, sequence (P54098 whole entry): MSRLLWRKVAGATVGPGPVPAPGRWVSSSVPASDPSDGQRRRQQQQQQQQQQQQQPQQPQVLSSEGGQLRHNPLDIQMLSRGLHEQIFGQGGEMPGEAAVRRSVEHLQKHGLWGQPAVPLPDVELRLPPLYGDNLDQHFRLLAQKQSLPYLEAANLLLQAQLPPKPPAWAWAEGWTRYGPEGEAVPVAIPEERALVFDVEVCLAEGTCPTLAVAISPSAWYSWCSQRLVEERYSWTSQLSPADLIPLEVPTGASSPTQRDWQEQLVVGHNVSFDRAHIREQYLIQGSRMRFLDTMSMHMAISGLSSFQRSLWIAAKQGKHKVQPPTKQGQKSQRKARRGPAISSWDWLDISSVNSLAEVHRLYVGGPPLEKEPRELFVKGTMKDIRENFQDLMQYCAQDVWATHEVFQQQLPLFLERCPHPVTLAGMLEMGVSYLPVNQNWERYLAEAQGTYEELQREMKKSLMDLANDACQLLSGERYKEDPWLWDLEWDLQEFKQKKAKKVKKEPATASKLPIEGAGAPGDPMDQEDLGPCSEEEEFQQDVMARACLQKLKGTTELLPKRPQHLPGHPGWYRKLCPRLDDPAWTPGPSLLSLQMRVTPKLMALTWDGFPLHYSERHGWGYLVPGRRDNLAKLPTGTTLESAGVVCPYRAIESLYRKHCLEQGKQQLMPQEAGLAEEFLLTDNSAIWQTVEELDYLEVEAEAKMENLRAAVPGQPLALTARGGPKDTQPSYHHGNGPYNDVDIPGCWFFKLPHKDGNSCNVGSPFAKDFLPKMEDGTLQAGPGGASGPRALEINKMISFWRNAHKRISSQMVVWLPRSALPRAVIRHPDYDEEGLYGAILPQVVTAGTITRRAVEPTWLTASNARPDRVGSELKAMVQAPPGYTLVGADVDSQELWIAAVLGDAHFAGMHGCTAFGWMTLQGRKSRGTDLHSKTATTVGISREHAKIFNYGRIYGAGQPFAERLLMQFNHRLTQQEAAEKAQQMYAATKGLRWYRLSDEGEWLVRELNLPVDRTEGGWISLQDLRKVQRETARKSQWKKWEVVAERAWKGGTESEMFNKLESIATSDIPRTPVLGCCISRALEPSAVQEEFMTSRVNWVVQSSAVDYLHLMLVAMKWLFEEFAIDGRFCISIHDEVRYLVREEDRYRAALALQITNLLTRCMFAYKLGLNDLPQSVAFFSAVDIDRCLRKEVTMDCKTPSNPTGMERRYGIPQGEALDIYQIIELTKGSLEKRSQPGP
structure (smiles),measurement,setting,value
"CNc1nc(N)nc2c1ncn2[C@@H]1O[C@H](CO[P@](=O)(N[C@@H](C)C(=O)OC(C)C)Oc2ccccc2)[C@@H](O)[C@@]1(C)F [Compound 1, isopropyl ((R)-(((2R,3R,4R,5R)-5-(2-amino-6-(methylamino)-9H-purin-9-yl)-4-fluoro-3-hydroxy-4-methyltetrahydrofuran-2-yl)methoxy)(phenoxy)phosphoryl)-L-alaninate]",CL renal,"[1]; both sexes, human, po, 250 mg, single oral Compound 2 250 mg, fasting",125 mL/min
same,CL renal,"[1]; both sexes, human, po, 500 mg, single oral Compound 2 500 mg, fasting",182 mL/min
same,CL renal,"[1]; both sexes, human, po, 500 mg, single oral Compound 2 500 mg, fed",110 mL/min
same,CL renal,"[1]; both sexes, human, po, 1000 mg, single oral Compound 2 1000 mg, South/Southeast/East Asian origin",162 mL/min
same,CL renal,"[1]; both sexes, human, po, 1000 mg, single oral Compound 2 1000 mg, fasting",190 mL/min
same,CL renal,"[1]; both sexes, human, po, 1500 mg, single oral Compound 2 1500 mg, fasting",138 mL/min
same,AUC(0-inf),[1]; [7],347 ± 64 ng·h/mL
same,half-life,[1]; [7],30 ± 6 min
same,Cmax,"[1]; both sexes, human, plasma, po, 250 mg, single oral Compound 2 250 mg, fasting, read-out: Cmax",482 ± 131 ng/mL
same,Tmax,"[1]; both sexes, human, plasma, po, 250 mg, single oral Compound 2 250 mg, fasting, read-out: Tmax",30 min
same,AUC(0-inf),[1]; [8],1110 ± 687 ng·h/mL
same,half-life,[1]; [8],30 ± 60 min
same,Cmax,"[1]; both sexes, human, plasma, po, 500 mg, single oral Compound 2 500 mg, fasting, read-out: Cmax",1230 ± 1110 ng/mL
same,Tmax,"[1]; both sexes, human, plasma, po, 500 mg, single oral Compound 2 500 mg, fasting, read-out: Tmax",30 min
same,AUC(0-inf),[1]; [9],980 ± 716 ng·h/mL
same,half-life,[1]; [9],42 ± 18 min
same,Cmax,"[1]; both sexes, human, plasma, po, 500 mg, single oral Compound 2 500 mg, fed (high-fat/high-calorie meal), read-out: Cmax",488 ± 303 ng/mL
same,Tmax,"[1]; both sexes, human, plasma, po, 500 mg, single oral Compound 2 500 mg, fed, read-out: Tmax",120 min
same,AUC(0-inf),[1]; [10],2730 ± 944 ng·h/mL
same,half-life,[1]; [10],30 ± 6 min
same,Tmax,"[1]; both sexes, human, plasma, po, 1000 mg, single oral Compound 2 1000 mg, South/Southeast/East Asian origin, read-out: Tmax",30 min
same,AUC(0-inf),[1]; [11],1920 ± 508 ng·h/mL
same,half-life,[1]; [11],30 ± 6 min
same,Cmax,"[1]; both sexes, human, plasma, po, 1000 mg, single oral Compound 2 1000 mg, fasting, read-out: Cmax",3040 ± 960 ng/mL
same,Tmax,"[1]; both sexes, human, plasma, po, 1000 mg, single oral Compound 2 1000 mg, fasting, read-out: Tmax",30 min
same,Cmax,"[1]; both sexes, human, plasma, po, 1000 mg, single oral Compound 2 1000 mg, patients of South/Southeast/East Asian origin, read-out: Cmax",3670 ± 1260 ng/mL
same,AUC(0-inf),[1]; [12],4630 ± 1500 ng·h/mL
same,half-life,[1]; [12],36 ± 12 min
same,Cmax,"[1]; both sexes, human, plasma, po, 1500 mg, single oral Compound 2 1500 mg, fasting, read-out: Cmax",5050 ± 2080 ng/mL
same,Tmax,"[1]; both sexes, human, plasma, po, 1500 mg, single oral Compound 2 1500 mg, fasting, read-out: Tmax",30 min
same,dose proportionality of plasma exposure,[1],greater than dose-proportional manner
same,Urine Elimination,[1],< 3%
same,EC50,Dengue serotype 4,< 1200 nM
same,AUC0-24 h,[2],4.2 ± 0.5 µM·h
same,Cmax,[2],2600 ± 300 nM
same,Tmax,[2],48 ± 18 min
same,EC50,Rhinovirus,> 100000 nM
same,EC50,DENV-1,570 nM
same,EC90,West Nile (WNV),430 nM
same,EC50,Chikungunya,54200 nM
same,EC50,flaviviruses [3],190 to 1410 nM
same,SI,"flaviviruses [4]; DENV-2 NGC Huh-7, DENV2 clinical isolate PBMC and BHK-21, DENV-3 H87 Huh-7, in each case",> 210
same,CC50,"flaviviruses [4]; read-out: CC50 (concentration required to kill 50% of cells exposed to drug only), exceeded the highest concentration tested",85000 to 170000 nM
C[C@@]1(F)[C@H](O)[C@@H](COP(=O)(O)OP(=O)(O)OP(=O)(O)O)O[C@H]1n1cnc2c(=O)[nH]c(N)nc21 [Compound 5],ΔTm at 100 µM,DENV1 NS5,6.1 ± 0.1 °C
same,GTPs incorporated for one AT-9010 incorporated,[5],7-8
same,IC50,[6],> 100000 nM
same,ΔTm at 100 µM,DENV2 NS5,6 ± 0.1 °C
"C[C@@]1(F)[C@H](O)[C@@H](CO)O[C@H]1n1cnc2c(=O)[nH]c(N)nc21 [Compound 6, 2′-fluoro-2′-C-methylguanosine]",dose proportionality of plasma exposure,[1],slightly less than dose-proportional
same,Urine Elimination,[1],6.7-8.8%
same,AUCInf,[1]; [13],1440 ± 280 ng·h/mL
same,Cmax,[1]; [13],91 ± 19 ng/mL
same,T1/2,[1]; [13],1150 ± 612 min
same,Tmax,[1]; [13],6.0 (3.0-6.0) h
same,AUCInf,[1]; [14],2390 ± 478 ng·h/mL
same,Cmax,[1]; [14],135 ± 25 ng/mL
same,T1/2,[1]; [14],834 ± 354 min
same,Tmax,[1]; [14],4.0 (3.0-8.0) h
same,AUCInf,[1]; [15],2990 ± 558 ng·h/mL
same,T1/2,[1]; [15],1040 ± 660 min
same,Tmax,[1]; [15],6.0 (6.0-8.1) h
same,Cmax,"[1]; single oral Compound 2 500 mg, fed (high-fat/high-calorie meal)",175 ± 29 ng/mL
same,AUCInf,[1]; [16],3830 ± 519 ng·h/mL
same,T1/2,[1]; [16],978 ± 180 min
same,Tmax,[1]; [16],5.0 (3.1-6.0) h
same,AUCInf,[1]; [17],4350 ± 1520 ng·h/mL
same,Cmax,[1]; [17],241 ± 71 ng/mL
same,T1/2,[1]; [17],1570 ± 732 min
same,Tmax,[1]; [17],4.1 (4.0-6.3) h
same,Cmax,"[1]; single oral Compound 2 1000 mg, patients of South/Southeast/East Asian origin",240 ± 46 ng/mL
same,AUCInf,[1]; [18],5460 ± 1190 ng·h/mL
same,Cmax,[1]; [18],283 ± 32 ng/mL
same,T1/2,[1]; [18],1300 ± 372 min
same,Tmax,[1]; [18],6.0 (3.2-6.1) h
same,CLR,"[1]; human, single oral Compound 2 250 mg, fasting",15.8 ± 2.8 L/h
same,CLR,"[1]; human, single oral Compound 2 500 mg, fasting",16.8 ± 7.6 L/h
same,CLR,"[1]; human, single oral Compound 2 500 mg, fed",13.4 ± 3.3 L/h
same,CLR,"[1]; human, single oral Compound 2 1000 mg, South/Southeast/East Asian origin",18.7 ± 2.1 L/h
same,CLR,"[1]; human, single oral Compound 2 1000 mg, fasting",17.1 ± 6.5 L/h
same,CLR,"[1]; human, single oral Compound 2 1500 mg, fasting",19.5 ± 4.1 L/h
same,AUC0-24 h,[2],18.8 ± 6.0 µM·h
same,Cmax,[2],2300 ± 700 nM
